Patent publication US20040013730A1, “Non-hormonal vaginal contraceptive” (priority 2003, published 2004)

System: human sperm
Assay: Efficacy of metal salts, albumin and dextran on motility of human sperm in vitro
Settings: for concentration at which spermiostatic (motility of sperm arrested): human sperm in vitro

Compound: [Ca+2].[Cl-].[Cl-] [calcium chloride]
- concentration at which spermiostatic (motility of sperm arrested): 25 mM

Compound: ferrous sulfate
- concentration at which spermiostatic (motility of sperm arrested): 10 mM

Compound: albumin
- sperm motility (10% albumin): decreased sperm motility almost close to that of 12.5 mM concentration of ferrous gluconate
- sperm completely immobilized (20% albumin): ~97%
- sperm completely immobilized (40% albumin): ~97%
- spermiostatic effects (lower concentrations of albumin and dextran): not significant

Compound: dihydrate ferrous gluconate [dihydrate form of ferrous gluconate]
- onset of spermiostatic effect (dihydrate form of ferrous gluconate): immediate
